From US20160067347A1, “APJ RECEPTOR AGONISTS AND USES THEREOF” (AMGEN INC., priority 2012, published 2016)
*1 amine or outer side, *2 acyl side, *3 side chain or, on linkers, in order; H or OH if unused. Primed or numbered codes have the meaning given here. Where no end group is shown, it is not given here. [ ]: non-standard residue; d: D form. Atz = (S)-2-amino-3-(1H-1,2,3-triazol-4-yl)propanoyl residue, substituent (PEG) on triazole N1, O=C([C@H](Cc1cn([*:3])nn1)N[*:1])[*:2]; Oic = O=C(O)[C@@H]1C[C@@H]2CCCC[C@@H]2N1; Phe(4-Cl) = N[C@@H](Cc1ccc(Cl)cc1)C(=O)O; hArg = N=C(N)NCCCC[C@H](N)C(=O)O; Cha = N[C@@H](CC1CCCCC1)C(=O)O; pGlu = O=C1CC[C@@H](C(=O)O)N1; PEG10′ = not defined here; Nle = CCCC[C@H](N)C(=O)O

Assays:
APJ receptor [1] = target: T1, APJ receptor (Rattus norvegicus, UniProt Q9JHG3); test: EC50
T1 construct: expressed in transfected cells; CHO is named only for the cAMP assay
T1 sequence (Q9JHG3 whole entry, looked up): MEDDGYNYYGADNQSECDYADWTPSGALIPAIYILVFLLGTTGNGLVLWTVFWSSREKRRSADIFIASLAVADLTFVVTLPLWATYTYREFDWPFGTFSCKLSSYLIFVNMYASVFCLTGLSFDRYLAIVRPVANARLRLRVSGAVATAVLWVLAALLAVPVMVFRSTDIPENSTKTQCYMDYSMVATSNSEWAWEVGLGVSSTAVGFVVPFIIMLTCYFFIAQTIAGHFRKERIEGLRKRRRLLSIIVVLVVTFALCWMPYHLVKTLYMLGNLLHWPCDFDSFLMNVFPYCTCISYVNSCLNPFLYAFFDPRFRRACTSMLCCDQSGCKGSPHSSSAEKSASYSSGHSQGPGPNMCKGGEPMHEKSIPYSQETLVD
Text: Table printed on a drawing sheet, FIGURE 11
The patent's description of the figure: FIG. 11. Effects of peptide valency on in vitro activity.
First copying reader's note: The sheet prints no unit for the EC50 column; the plot under the table ([35S]GTPγS binding, rAPJ stable cell line) is not copied.

[2] = tested on: isolated Langendorff rat heart; test: Langendorff isolated rat heart, hemodynamic cardiac function; settings: control rats, FIGS. 7 and 8
Text: To assess the hemodynamic cardiac function of the peptides a Langendorff isolated heart system was used. The isolated heart from rat provides broad spectrum of measurements that can include biochemical, metabolic, morphological and physiological indices. The limitations/advantages of the method include absence of neurohormonal influences, neural regulation and high coronary flows. Such limitations, however, are offset by the ability to study direct cardiac effects without systemic circulation and a host of peripheral interactions.
The reproducibility and accuracy of measurements and relatively low costs over in vivo studies for profiling drugs outweigh any limitations of this method. Therefore, this method provides excellent dose-response relationship and sheds critical insight into the pharmacological and physiological properties of the molecules of interest.
The animals were anesthetized upon administration of 50-100 mg/kg dose of sodium pentobarbital for rat via the intraperitoneal route. The heart was excised and gently cradled between fingers to avoid injury followed by lifting slightly before incising the aorta, vena cava and pulmonary vessels Immediately after excision of the heart with aorta, the heart was mounted onto the cannula in the Langendorff apparatus via the aorta. The heart was perfused with modified oxygenated Krebs-Henseleit buffer pH7.5 and equilibrated with 95% O2/5% CO2 at 37° C. The perfusion was performed at a constant flow of 10 ml/min and paced at 300 bpm. The pressure was measured through a pressure sensing balloon catheter inserted in the LV cavity. The intrinsic inotropy (force of muscle contraction) and lusitropy (cardiac relaxation) effects of the heart were assessed by dp/dtmax and dp/dtmin.
These figures illustrate improvement in both systolic and diastolic function of normal hearts with peptides of SEQ ID NOs: 23 and 24.

[3] = tested on: healthy rats and rats having MI-induced heart failure; test: In vivo cardiac hemodynamics (Millar PV loop, femoral arterial pressure) in healthy and MI-induced heart failure rats; design: species or system rat; settings: for mean dp/dt max increase: intravenous infusion, FIG. 9
Description: The cardiac function of healthy rats and the rats having MI (myocardial infarction)-induced heart failure was measured via the Millar PV loop system and femoral arterial pressure catheter were examined.
Male Lewis rats at 2-3 months of age were used for the studies. MI was induced by ligation of the left anterior descending coronary artery (LAD). Echocardiography was performed at 1 week post-MI for animal enrollment. If ejection fraction (EF) was more than 40% and no infarct was identified from echocardiography images, these animals were excluded from the study. The Millar PV loop catheter was inserted into the right common carotid artery and then advanced to the left ventricle (LV) for cardiovascular hemodynamic assessment. The arterial pressure catheter was inserted into a femoral artery for peripheral blood pressure monitoring.
Experiments were performed either on six-seven weeks post-MI rat, or healthy rats. […] Test articles were given intravenously via jugular vein, and 3 sets of peptide doses were used in the experiment. […] At the end of the experiment, the infarct size was verified by gross morphology if MI rats were used in the study.
Animals in MI groups had very similar infarct size (38-39% of LV) among the groups (results not shown).

FIGURE 4B = test: FIGURE 4B
Text: Table printed on a drawing sheet, FIGURE 4B
Section band inside the table: Peptides with triazole linker and 20 kDa PEG modification
The patent's description of the figure: FIGS. 4A-B. In vitro stability of APJ agonists in plasma.
First reader's note: Rows 3 and 9 of the grid are section headings spanning all columns (linker type of the 20 kDa PEGylated peptides).

human APJ = target: T2, human APJ (Homo sapiens, UniProt P35414); test: cAMP assay, stable CHO cell line expressing human APJ; assay type: cell-based; settings: FIG. 5; cAMP seen with either human or rat APJ stable cell lines
T2 construct: expressed in transfected cells
T2 sequence (P35414 1-380): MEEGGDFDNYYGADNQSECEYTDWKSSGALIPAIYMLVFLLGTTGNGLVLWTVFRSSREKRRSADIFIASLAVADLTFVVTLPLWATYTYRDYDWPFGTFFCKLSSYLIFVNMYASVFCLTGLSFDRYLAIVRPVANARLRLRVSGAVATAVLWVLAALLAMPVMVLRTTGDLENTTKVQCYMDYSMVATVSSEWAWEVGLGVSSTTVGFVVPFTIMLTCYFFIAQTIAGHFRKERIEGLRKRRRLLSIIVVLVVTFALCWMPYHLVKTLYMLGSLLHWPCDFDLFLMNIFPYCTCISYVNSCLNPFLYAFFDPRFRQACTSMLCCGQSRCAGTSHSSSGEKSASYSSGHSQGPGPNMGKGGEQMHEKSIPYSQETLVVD
Description: Stable CHO cell lines expressing APJ were used for cAMP assays. The cells were incubated with stimulation buffer containing HANK's buffer, forskolin and 0.5 mM IBMX in the absence or presence of various concentrations' of peptides at 37° C. for 45 min. The cAMP level was determined using a cyclic AMP kit (DiscoverX) according to the manufacturer's instructions.

APJ receptor [4] = test: EC50 IP (µM)
Text: Table printed on a drawing sheet, FIGURE 3B
Head of the field: EC50 IP (µM)
Section band inside the table: Peptides with 525 Da PEG modification
The patent's description of the figure: FIGS. 3A-C.
First copying reader's note: Row 2 is a section heading spanning all columns; blanks inside names and sequences only mark line breaks within the printed cell.
Where the first naming reader finds the target: passage: An “APJ agonist” should be understood to refer to a molecule that is able to activate the APJ receptor.

[5] = dose ranges from 5.5 to 88 μg/kg

Which EC50 (APJ receptor [1]) does the source give for “SEQ ID NO: 131: 20 kDa PEG-tetrakis(Atz-KFRRQRP[hArg][Cha]SHKG[Oic][Nle]P[4-Cl—F]) (KFRRQRP[hArg][Cha]SHKG[Oic][Nle]P[Phe(4-Cl)]; not fully specified (N-terminus); also: 20 kDa PEG carries four peptide copies)” here?
Its EC50 is 0.794 nM.

For “[PE65;hArg68;Cha69;3-(1-(2-aminoethoxy(PEG9)ethyl)-1H-1,2,3-triazol-4-yl)Ala70;Oic74;Nle75;4-Cl-F77]Apelin-13(65-77) ([pGlu]RP[hArg][Cha][Atz](PEG10′)HKG[Oic][Nle]P[Phe(4-Cl)]) [SEQ ID NO: 23]”, which dp/dtmax [2] is on record?
The dp/dtmax was “dose dependent increase”.

What about the dp/dtmin [2] of the same substance?
Its dp/dtmin is “decrease”.

And the systolic pressure [2]?
The systolic pressure was “increases”.

What about the “Heart rate (HR) increase” value ([3]; MI rats, intravenous infusion of 88 μg/kg accumulative dose) of the same substance?
Its value is “up to 10.6%”.

And the “mean dp/dt max increase” value ([3]; MI rats)?
Its value is 24.5%.

And the “other cardiac hemodynamic changes” value [3, 5]?
Its value is “No other cardiac hemodynamic changes were observed”.

What about the “peripheral vascular resistant measurement such as mean arterial pressure” value [3, 5] of the same substance?
Its value is “No significant changes”.

And the “mean dp/dt max increase” value ([3]; healthy rats)?
Its value is 32%.

For “Atz(20K-mPEG)-LRP[hArg][Cha]SHKG[Oic][Nle]P[4-Cl-F] [compound 50]”, which “in vitro plasma stability (t1/2, min) | HUMAN” value (FIGURE 4B) is on record?
The value was 264 min.

What about the “in vitro plasma stability (t1/2, min) | MOUSE” value (FIGURE 4B) of the same substance?
Its value is 64 min.

What about the “in vitro plasma stability (t1/2, min) | RAT” value (FIGURE 4B) of the same substance?
Its value is 256 min.

With “Atz(20K-mPEG)- KFRRQRP[hArg][Cha]SHKG[Oic][Nle]P[4-Cl-F] [compound 49]” as the substance, how does the “in vitro plasma stability (t1/2, min) | HUMAN” value (FIGURE 4B) read?
The value was 176 min.

What about the “in vitro plasma stability (t1/2, min) | MOUSE” value (FIGURE 4B) of the same substance?
Its value is 55 min.

And the “in vitro plasma stability (t1/2, min) | RAT” value (FIGURE 4B)?
The value was 193 min.

For “3-(1-(2-(mPEG(20kDa))ethyl)-1H-1,2,3-triazol-4-yl)alanine-[hArg68;Cha69;Oic74;Nle75;4-Cl-F77]Apelin-17(61-77) [SEQ ID NO: 25]”, which “agonist activity relative to pyr apelin-13 (SEQ ID NO: 128)” value (human APJ) is on record?
The value was “potent and act as a full agonist”.

Which EC50 (APJ receptor [4]) does the source give for “{Hydrogen}[PE]RP[hArg][Cha][Pra(NPeg9) ]HKG[Oic][Nle][4-Cl-F]{FreeAcid}” here?
The EC50 was 133 nM.

For “SEQ ID NO: 130: 20 kDa PEG-bis(Atz-KFRRQRP[hArg][Cha]SHKG[Oic][Nle]P[4-Cl—F]) (KFRRQRP[hArg][Cha]SHKG[Oic][Nle]P[Phe(4-Cl)]; not fully specified (N-terminus); also: 20 kDa PEG carries two peptide copies)”, which EC50 (APJ receptor [1]) is on record?
The EC50 was 0.407 nM.
